Series [1] in a line: Partition coefficient (logP). The series is classed as physicochemical. Conditions: octanol/water.
Series [2] concerns Caco-2. Put plainly: Caco-2 permeability as biopharmaceutical property. Conditions: Homo sapiens. The series is classed as functional, cell-based.
Another series has as its target Phosphodiesterase 6. As to the kind of experiment: Inhibitory concentration against bovine retina phosphodiesterase 6 activity. The series is classed as tissue-based.
The target of series [3] is cGMP-specific 3',5'-cyclic phosphodiesterase (Homo sapiens, UniProt O76074). As to the kind of experiment: Inhibitory activity against human platelet Phosphodiesterase 5 (PDE5).
Series [4] is described as follows: Ratio of IC50 against human platelet PDE5 to that against bovine retina PDE6.
Series [5] concerns Caco-2. As to the kind of experiment: Caco 2 permeability is determined. The series is classed as functional, cell-based. Particulars: Homo sapiens.
For another series, the target named is Phosphodiesterase 3 (Homo sapiens, UniProt Q14432+Q13370). As to the kind of experiment: Inhibition of human platelet Phosphodiesterase 3.
The target in the next series is Phosphodiesterase 1 (Bos taurus, UniProt Q01061+P14100). As to the kind of experiment: Inhibition of bovine heart Phosphodiesterase 1 (PDE1). The series is classed as protein assay.
Series [6] can be described thus: In vitro microsome metabolism clearance in rat was determined. The series is classed as ADME. Particulars: microsomes.
Series [7] can be described thus: Volume in steady state distribution value was determined. Conditions: rat, in vivo; read-out: Vss. The series is classed as ADME, organism-based.
Series [8] is described as follows: Bioavailability. The series is classed as ADME, organism-based. Particulars: rat, in vivo; read-out: BAV.
Series [9] can be described thus: The pharmacokinetic property, Half-life was determined. It is filed as ADME, organism-based. Conditions: rat, in vivo.
The species named for a further series is Homo sapiens. Put plainly: Caco-2 permeability was determined. The series is classed as ADME.
Series [10] can be described thus: Kinetic solubility at pH 7.4. The series is classed as physicochemical. Conditions: buffer.
Series [11] is described as follows: Kinetic solubility at pH 5. The series is classed as physicochemical. Particulars: caco-2, pH 5.
Series [12] is described as follows: In vitro microsome metabolism clearance in human was determined. Conditions: microsomes. The series is classed as ADME.
Series [13] is described as follows: Log D value at pH 7.4. Particulars: buffer. The series is classed as physicochemical.
Series [14] in a line: The pharmacokinetic property, Half-life in rat in vivo. It is filed as ADME, organism-based.
A short description of series [15]: Kinetic solubility at pH 5.9. Particulars: buffer. It is filed as physicochemical.
A short description of series [16]: Kinetic solubility at pH 6.9, ca. It is filed as physicochemical. Particulars: buffer.
A short description of series [17]: In vitro microsome metabolism clearance in human was determined; High. The series is classed as ADME. Particulars: microsomes.
Series [18] in a line: Kinetic solubility at pH 5; ca. The series is classed as physicochemical. Conditions: buffer.
Series [19] in a line: Kinetic solubility at pH 7.4, ca. The series is classed as physicochemical. Particulars: buffer.
Series [20] in a line: Kinetic solubility at pH 5, ca. Particulars: buffer. The series is classed as physicochemical.

≈ marks a conversion by molar mass, not a printed value.

As for `CCCOc1ccc(S(=O)(=O)N(C)CCN(C)C)cc1-c1nc2c(=O)n(C)c(=O)n(CC(C)C)c2[nH]1`, the logP in [1] was found to be 4.9. The apparent permeability (Papp) in the series with Caco-2 [2] was 0.3 ×10⁻⁶ cm/s. The IC50 is 1150 nM on Phosphodiesterase 6 and 16 nM in [3]. In addition, the Ratio in series [4] amounted to 72.

On to `CCCOc1ccc(S(=O)(=O)N2CCC(CCO)CC2)cc1-c1nc2c(=O)n(C)c(=O)n(CC(C)C)c2[nH]1`, for which, in the series on Caco-2 [2], the Papp worked out at 13.2 ×10⁻⁶ cm/s. This compound also came in with an IC50 at Phosphodiesterase 6 of 17 nM. Further, the Ratio in series [4] was determined as 5.5.

In the case of `CCOc1ccc(S(=O)(=O)N2CCN(C)CC2)cc1-c1nc2c(=O)n(C)c(=O)n(CC(C)C)c2[nH]1`, the Papp in the series with Caco-2 [5] stood at 25 ×10⁻⁶ cm/s. For the same compound, the figures for the IC50 on Phosphodiesterase 3, on Phosphodiesterase 6 and against Phosphodiesterase 1 were above 10000 nM, 100 nM and 3380 nM, respectively. For the same compound, the Ratio in [4] was 4.9.

`CCOc1ccc(S(=O)(=O)N2CCN(C)CC2)cc1-c1nc2c(=O)n(C)c(=O)n(CC(C)CC)c2[nH]1` (stereo unspecified): the results for the microsomal CLint in series [6] and in series [12] were 178 µL/min/mg and 114 µL/min/mg, respectively. Besides, the Vd in [7] was 9.7 L/kg. In addition, the bioavailability in [8] was 11%. In series [9], this compound registered a half-life of 1.53 h. The compound also registered a logP in series [1] of 3.81. The same compound came in with a Papp in the series listed under Homo sapiens of 34.5 ×10⁻⁶ cm/s. For the same compound, the kinetic solubility was 100 µg/mL (≈ 193 µM) in series [10] and above 200 µg/mL in series [11]. Besides, the IC50 against Phosphodiesterase 3 is 6030 nM; against Phosphodiesterase 6 it was 83 nM; in [3], 9 nM; on Phosphodiesterase 1, above 10000 nM.

Consider `CCOc1ccc(S(=O)(=O)N2CCN(C)CC2)cc1-c1nc2c([nH]1)c(=O)n(C)c(=O)n2CC(C)C`, for which the Vd in series [7] turned out to be 9.7 L/kg. Moreover, in [8], the bioavailability turned out to be 11%. In addition, the logD in series [13] worked out at 3.15. The compound further came in with a half-life in series [14] of 1.53 h. For the same compound, in [1], the logP was 3.26. Besides, the solubility (kinetic) was above 160 µg/mL in series [15] and 30 µg/mL (≈ 59.5 µM) in [16].

Take `CCCOc1ccc(S(=O)(=O)N2CCC(CCO)CC2)cc1-c1nc2c([nH]1)c(=O)n(C)c(=O)n2CC(C)C`: the Cl entry in [17] is reported as “High”. Further, the microsomal CLint in series [6] is 226 µL/min/mg. The bioavailability in series [8] turned out to be 0%. In addition, the logP in series [1] was 3.67. The solubility (kinetic) in series [18] and in series [19] was 5 µg/mL (≈ 9.13 µM) in each case. Also, the IC50 in series [3] worked out at 3 nM.

For the compound `CCCOc1ccc(S(=O)(=O)N2CCN(C(=O)N(C)C)CC2)cc1-c1nc2c(=O)n(C)c(=O)n(CC(C)C)c2[nH]1`, the microsomal CLint in series [6] worked out at 185 µL/min/mg; in series [12], 71 µL/min/mg. Moreover, in series [7], the Vd was found to be 3.4 L/kg. Also, the bioavailability in [8] is 0%. Besides, the half-life in series [9] turned out to be 0.367 h. In addition, the logP in series [1] worked out at 4.04. Moreover, the solubility (kinetic) in series [20] and in [19] was 25 µg/mL (≈ 43.4 µM) throughout. This compound also yielded a Papp in the series with Caco-2 [2] of 22.9 ×10⁻⁶ cm/s. Further, the 50% inhibitory concentration (IC50) against Phosphodiesterase 6 worked out at 14 nM; in series [3] it was 3.5 nM. The Ratio in series [4] is 4.

Take `CCOc1ccc(S(=O)(=O)N2CCN(C)CC2)cc1-c1nc2c(=O)n(C)c(=O)n(Cc3ccc(OC)cc3)c2[nH]1`: the IC50 at Phosphodiesterase 3 was above 10000 nM; at Phosphodiesterase 6 it was 1210 nM; in series [3], 59 nM; on Phosphodiesterase 1, 4520 nM.

These data come from ChEMBL document CHEMBL1136031, “8-Aryl xanthines potent inhibitors of phosphodiesterase 5” (Bioorg Med Chem Lett, 2002).
